Test results from patent US9315816B2, “Method for rapidly developing gene switches and gene circuits” (National University Corporation Chiba University, priority 2010, dated 2016).

Experiments:
[1] = test system: TK-deficient E. coli strain in which hsvTK was expressed (hsvTK+); assay: ON selection: 5FdU concentration vs viable cell count, hsvTK+; format: cell-based, Escherichia coli
Method: With the TK-deficient strain of E. coli JW1226, a human herpes virus derived thymidine kinase (hsvTK) was expressed by transfecting pTrc-hsvtk (FIG. 3), and a relationship between the concentration of 5FdU and the survival rate of cells (viable cell count) was investigated.
First, JW1226 cells transfected with pTrc-hsvtk were diluted with 1 mL of positive selection medium so as to achieve an OD600 of 0.002 (approximately 10^6 cells/mL), and cultured at 37° C. for 12 hours while being rotated at 200 rpm. The positive selection medium used was medium containing tryptone at 2% w/v, NaCl at 0.5% w/v, dT at 10 μg/mL, adenosine at 1 μg/mL, and 5FdU at 0 to 25 μg/mL. After the culture, a portion of the resultant culture was collected and inoculated in an LB plate containing ampicillin, and the number of colonies grown was counted as a viable cell count.

[2] = test system: TK-deficient E. coli strain in which hsvTK was not expressed (hsvTK−); assay: ON selection: 5FdU concentration vs viable cell count, hsvTK−; format: cell-based, Escherichia coli; conditions: 5FdU 0 to 25 μg/mL, 12 hours
[3] = test system: alkylating agent-sensitive E. coli strain MV2157; assay: ON-selector function of AAG gene: survival rate under MMS; format: cell-based, Escherichia coli
Method: The ON-selector function of the AAG gene was studied. First, alkylating agent-sensitive E. coli strains MV2157 were separately transfected with plasmids containing AAG and variants thereof, specifically, pTrc-aag (WT), pTrc-aag (E125A), and pTrc-aag-ape1 prepared in Example 1, and were compared for their survival rates in the presence/absence of MMS. The E. coli strain transfected with pTrc-aag (E125A) was used as a negative control.
Next, 1 μL of culture was inoculated in LB liquid medium, and cultured at 37° C. for 3 hours. MMS was added at a final concentration of 0 to 40 mM, and culture was conducted at 37° C. for 15 to 60 minutes. […] A value obtained by dividing the viable cell count of the sample to which MMS had been added by the viable cell count of the sample to which MMS had not been added was defined as a survival rate.

[4] = test system: E. coli MV2157 transfected with selector plasmid Ver. 2 and Circuit-C or Circuit-D; assay: ON selection of genetic circuit with selector plasmid Ver. 2 under MMS; format: cell-based, Escherichia coli
Method: First, E. coli MV2157 transfected with selector plasmid Ver. 2 and Circuit-C (referred to as “ON strain” in Example 3), and E. coli MV2157 transfected with selector plasmid Ver. 2 and […] (referred to as “OFF strain” in Example 3) were prepared. […] The cell density at the time of the MMS treatment is approximately 10^8 cells/mL. […] A value obtained by dividing the viable cell count of the sample to which MMS had been added by the viable cell count of the sample to which MMS had not been added was defined as a survival rate.
Next, time-dependent changes in the survival rates of the ON strain and the OFF strain when MMS was added at 0.2% were investigated. In this case, an ON strain transfected with pTrc-ape1 was prepared and similarly studied for comparison. Culture and treatment with MMS of each strain of E. coli were conducted by similar methods to the methods in the foregoing.

[5] = test system: E. coli MV2157 switch strains with selector plasmid Ver. 2; assay: Enrichment efficiency by dual selection, Circuit-B:C:D = 1:100:100; format: cell-based, Escherichia coli; conditions: 0.4% MMS, 30 minutes, approximately 10^6 cells/mL
Method: Next, enrichment efficiency by dual selection was evaluated. Selector plasmid Ver. 2 (FIG. 13-B) was used as a selector plasmid, and the following three kinds of model genetic circuits were used: Circuit-B; Circuit-C; and Circuit-D (see FIGS. 2-B, 2-C, and 2-D). The selector plasmid and one kind of model genetic circuit were transfected into E. coli MV2157. Each switch strain was inoculated in 2 mL of LB medium containing AHL, and cultured at 37° C. for 12 hours. Next, the switch strains having Circuit-B, Circuit-C, or Circuit-D were mixed at an abundance ratio of 1:100:100 in terms of OD. The mixed cell population was subjected to OFF selection by the same method as above, and then cultured at 37° C. for 2 hours. The cells were harvested by centrifugation, the medium was exchanged for M9 minimal medium, MMS was added at a concentration of 0.2%, 0.3%, or 0.4%, and the whole was left to stand still at 37° C. for 30 minutes (ON selection). After that, the medium was exchanged for LB medium, culture was conducted for 12 hours, and plasmids were extracted from the culture solution. The plasmids were transformed together with pλ-gfp into XL10-GOLD™ ultracompetent cells (Agilent Technologies). After that, the transformed cells were inoculated in solid media supplemented and not supplemented with AHL, and the numbers of cells expressing GFP were compared. […]

[6] = test system: TK-deficient cells transfected with pTrc-hsvtk constantly expressing hsvTK; assay: Rapidity of OFF selection (dP shock); format: cell-based, Escherichia coli; conditions: dP 1 μM; 5, 30 or 60 minutes
Method: First, TK-deficient cells transfected with pTrc-hsvtk (FIG. 3) so as to constantly express hsvTK were cultured under shaking at 37° C. and 200 rpm until an OD of 0.05 (approximately 3×10^7 cells/mL) was achieved. The resultant was dispensed at 1 mL each, dP was added (final concentration: 1 μM), and culture was continued at 37° C. After a lapse of 5, 30, or 60 minutes, 20 μL of the culture (approximately 10^6 cells) were collected and inoculated in an LB plate containing ampicillin, and the number of colonies grown was counted as a viable cell count.

E. coli cell population = conditions: 37 μM dP; cited from earlier work
[7] = test system: TK-deficient E. coli strain transfected with a control plasmid pTrc99A (hsvTK−); assay: OFF selection: dP concentration vs viable cell count, hsvTK− control; format: cell-based, Escherichia coli; conditions: dP 0 to 100 nM, 12 hours
[8] = test system: TK-deficient E. coli strain JW1226 in which hsvTK was expressed (hsvTK+); assay: OFF selection: dP concentration vs viable cell count, hsvTK+; format: cell-based, Escherichia coli; conditions: dP 0 to 100 nM, 12 hours
Method: With the TK-deficient E. coli strain JW1226, human herpes virus derived thymidine kinase (hsvTK) was expressed by transfecting pTrc-hsvtk (FIG. 3), and a relationship between the concentration of dP and the survival rate of cells (viable cell count) was investigated.
First, JW1226 cells transfected with pTrc-hsvtk were cultured in 2 mL of LB medium containing 100 μg/mL of ampicillin at 37° C. overnight. Next, the culture was diluted with 1 mL of fresh LB medium containing dP (at a final concentration of 0 to 100 nM) 1,000-fold (10^6 cells/mL), and stirred and shaken at 37° C. for 12 hours. After the culture, the cells were seeded on an LB-agar (1.5% w/v) plate containing ampicillin at 100 μg/mL. After incubation at 37° C. for 12 hours, the number of colonies grown was counted as a viable cell count.

For `O=c1[nH]c(=O)n([C@H]2C[C@H](O)[C@@H](CO)O2)cc1F` [5FdU, 5-fluoro-2′-deoxyuridine], the viable cell count ([1]; 5FdU 0 to 25 μg/mL, 12 hours, hsvTK+) was “decreased at a slow rate”, the “survival rate of hsvTK+ as compared to hsvTK−” value ([1]; 5FdU 25 μg/mL) was 4.8×10^7 fold and the viable cell count [2] was “decreased with increasing concentrations of 5FdU”.

For `CS(=O)(=O)O` [MMS, methanesulfonic acid], the “survival rates of cells expressing AAG” value ([3]; MMS 20 mM, 60 minutes) was “significantly decreased”, the “enrichment of cells expressing AAG” value ([3]; MMS treatment 15 to 60 minutes) was ~1,000 fold and the “survival of all the strains” value ([3]; MMS ~40 mM) was “mostly died off”. For the same molecule, the “survival rate of OFF strain (AAG not expressed)” value ([4]; MMS 0.2-0.4%, 15 to 60 minutes) was “significantly decreased”, the “survival rate of ON strain (AAG expressed)” value ([4]; MMS 0.2-0.4%, 15 to 60 minutes) was “only slightly reduced” and the “difference in survival rate between the OFF strain and the ON strain” value ([4]; MMS 0.4%, 30 minutes) was ≥ 10^4 fold. The “cell survival in ON selection” value [5] was “all the cells were killed”.

In the case of `O=C1NC2=NOCCC2=CN1[C@H]1C[C@H](O)[C@@H](CO)O1` [dP, 6-(β-D-2-Deoxyribo-furanosyl)-3,4-dihydro-8H-pyrimido[4,5-c][1,2]oxazin-7-one], the “viable cell count after dP shock” value [6] is listed as “almost zero”, the “fraction of E. coli cell population killed” value (E. coli cell population) is listed as 80% and the survival rate [7] is listed as “no reduction in survival rate”. The viable cell count [8] was “significantly decreased in a dP concentration-dependent manner”.

In the case of “pTrc-aag (WT): ON-selector plasmid containing a wild-type AAG gene”, the MMS resistance ([3]; 3-methyladenine repair enzyme-deficient strain) is reported as “acquisition of MMS resistance has been confirmed”.
